Data published in ChEMBL document CHEMBL1201862, “PubChem BioAssay data set” (2004).
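Test compounds were applied to cells in 96-well plates for 48 hours at 5 doses. Abbreviation: GI50, concentration required for 50% inhibition of growth.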 Active and inactive are the calls of the source. No stated cut-off is given here; in the data, active = GI50 up to about 1.1 µM and inactive = higher.

Columns and labels:
Assay in all cases: growth of human tumour cells (NCI), 48 h
[1] = tested on: EKVX
[2] = tested on: HL-60
[3] = tested on: HOP-62
[4] = tested on: K562
[5] = tested on: M14
[6] = tested on: MDA-MB-231
[7] = tested on: NCI-H226
[8] = tested on: OVCAR-5
[9] = tested on: RPMI-8226
[10] = tested on: RXF 393
[11] = tested on: SK-MEL-2
[12] = tested on: SR
[13] = tested on: SW-620
[14] = tested on: TK-10
[15] = tested on: UACC-62
[16] = tested on: CCRF-CEM
[17] = tested on: SK-OV-3
[18] = tested on: DU-145
[19] = tested on: SF-539
[20] = tested on: MCF7

Measured: GI50

O=c1[nH]c2nc(S)nc(S)c2[nH]1
inactive: [1] > 100 µM | [2] > 100 µM | [3] > 100 µM | [4] > 100 µM | [5] > 100 µM | [6] > 100 µM | [7] > 100 µM | [8] > 100 µM | [9] > 100 µM | [10] > 100 µM | [11] > 100 µM | [12] > 100 µM | [13] > 100 µM | [14] > 100 µM | [15] > 100 µM

O=C1CCCCC/C=C2/CC[C@H](Sc3ccccc3)[C@@H]12
inactive: [16] 6.27 µM | [1] 38.3 µM | [2] 52.1 µM | [3] 37.3 µM | [4] > 100 µM | [5] > 100 µM | [7] > 100 µM | [9] > 100 µM | [10] 37.8 µM | [11] 71.9 µM | [17] 82.2 µM | [12] 55.2 µM | [13] > 100 µM | [14] 49.9 µM | [15] > 100 µM

Oc1ccccc1/C=N/N1C(=S)N(C23CC4CC(CC(C4)C2)C3)C(=N\c2ccccc2)/C1=N/c1ccccc1
inactive: [18] > 100 µM | [1] > 100 µM | [3] > 100 µM | [4] 4.46 µM | [5] > 100 µM | [6] 8.04 µM | [7] > 100 µM | [8] > 100 µM | [9] 6.15 µM | [10] 82.8 µM | [19] > 100 µM | [11] > 100 µM | [17] > 100 µM | [12] 43.3 µM | [13] > 100 µM | [14] > 100 µM | [15] > 100 µM

CC1(c2ccc(Cl)cc2)c2ccccc2C(=O)N1CCCN1C(=O)c2ccccc2C1=O (stereo not given)
inactive: [16] 45.1 µM | [18] 40.3 µM | [1] 3.36 µM | [2] 28.5 µM | [3] 49.7 µM | [4] 50.5 µM | [6] > 100 µM | [7] 22.7 µM | [9] 33.3 µM | [10] 29.4 µM | [11] 20.3 µM | [17] 31.2 µM | [12] 34.6 µM | [13] 56.8 µM | [14] > 100 µM | [15] 30.1 µM

CCOC(=O)C(=[N+]=[N-])C(=O)C[N+]12CCN(CC1)CC2
inactive: [16] > 100 µM | [18] > 100 µM | [3] > 100 µM | [4] > 100 µM | [5] > 100 µM | [6] > 100 µM | [7] > 100 µM | [8] > 100 µM | [9] > 100 µM | [10] > 100 µM | [11] > 100 µM | [17] > 100 µM | [12] > 100 µM | [13] > 100 µM | [14] > 100 µM | [15] > 100 µM

CC1(C)C(C#N)C1C1=C(N2CCOCC2)[C@]2(C)C(OC(=O)c3ccccc3)CC[C@@H]2C1 (stereo not given in full)
inactive: [16] 31 µM | [1] > 100 µM | [3] > 100 µM | [4] 38.5 µM | [5] > 100 µM | [20] 72.6 µM | [6] > 100 µM | [7] > 100 µM | [8] > 100 µM | [10] 35.6 µM | [19] > 100 µM | [17] > 100 µM | [12] 61.5 µM | [13] > 100 µM | [14] > 100 µM | [15] > 100 µM

S=C1/C(=N/c2ccccc2)N(C2CCCCC2)/C(=N\C2CCCCC2)N1c1ccccc1
inactive: [16] > 100 µM | [18] > 100 µM | [1] > 100 µM | [2] > 100 µM | [3] 51.8 µM | [4] > 100 µM | [6] > 100 µM | [7] > 100 µM | [8] > 100 µM | [9] > 100 µM | [10] > 100 µM | [19] 1.18 µM | [11] > 100 µM | [17] > 100 µM | [12] > 100 µM | [13] > 100 µM | [14] > 100 µM | [15] 76.2 µM

IC[P+]1(c2ccccc2)CCCC1
inactive: [16] 54.2 µM | [1] 16.7 µM | [2] 45.1 µM | [3] 38.2 µM | [4] 35.9 µM | [5] 46.5 µM | [7] 24.2 µM | [8] > 100 µM | [9] 29.8 µM | [10] 76.7 µM | [19] 45.3 µM | [11] > 100 µM | [17] > 100 µM | [12] 33.4 µM | [13] > 100 µM | [14] 47.3 µM | [15] > 100 µM

COC(=O)CCc1cccnc1/C=N/O
inactive: [16] 96.4 µM | [1] > 100 µM | [2] > 100 µM | [3] > 100 µM | [4] > 100 µM | [5] > 100 µM | [7] > 100 µM | [8] > 100 µM | [10] > 100 µM | [19] > 100 µM | [11] > 100 µM | [17] > 100 µM | [12] > 100 µM | [13] 87.5 µM | [14] 55.7 µM | [15] > 100 µM

CC(=O)NNc1nc(C)c(C(=O)NNC(=O)C(=O)Nc2ccc(C)c(C)c2)s1
inactive: [16] 42.2 µM | [1] > 100 µM | [2] 70.8 µM | [3] > 100 µM | [4] 52.6 µM | [5] > 100 µM | [7] > 100 µM | [8] > 100 µM | [9] 50.9 µM | [10] > 100 µM | [19] > 100 µM | [11] > 100 µM | [17] > 100 µM | [12] 54.1 µM | [13] > 100 µM | [14] > 100 µM | [15] > 100 µM

C=C1C(=O)OC2C1CC[C@H](C)C1(O)C(O)CC(=O)[C@@]21C (stereo not given in full)
inactive: [16] > 10 µM | [1] 19.5 µM | [2] 17 µM | [4] 14.3 µM | [7] 21.7 µM | [8] 21 µM | [9] 22.1 µM | [10] > 10 µM | [19] 19 µM | [11] 27.2 µM | [17] 24.9 µM | [12] 17.1 µM | [13] 20.6 µM | [14] > 10 µM | [15] 12.7 µM

[N-]=[N+]=NC(CI)c1cn([C@H]2C[C@H](O)[C@@H](CO)O2)c(=O)[nH]c1=O (stereo not given in full)
inactive: [16] > 100 µM | [1] > 100 µM | [2] 54.1 µM | [3] > 100 µM | [4] 83.9 µM | [5] > 100 µM | [7] > 100 µM | [8] > 100 µM | [9] 51.5 µM | [10] > 100 µM | [19] > 100 µM | [11] > 100 µM | [17] > 100 µM | [12] > 100 µM | [13] > 100 µM | [14] > 100 µM | [15] > 100 µM
